Reference: PMC3607207 (ACS combinatorial science, 2012)
“Also recorded” adds a separate entry of the source.

Molecular target: mu opioid receptor (Rattus norvegicus, UniProt P33535)
Assay: competitive radio receptor binding assay, [3H]DAMGO, rat brain membranes
Conditions: 1 mg/ml (14.7 mM) imidazole

mu opioid receptor, sequence (P33535 whole entry): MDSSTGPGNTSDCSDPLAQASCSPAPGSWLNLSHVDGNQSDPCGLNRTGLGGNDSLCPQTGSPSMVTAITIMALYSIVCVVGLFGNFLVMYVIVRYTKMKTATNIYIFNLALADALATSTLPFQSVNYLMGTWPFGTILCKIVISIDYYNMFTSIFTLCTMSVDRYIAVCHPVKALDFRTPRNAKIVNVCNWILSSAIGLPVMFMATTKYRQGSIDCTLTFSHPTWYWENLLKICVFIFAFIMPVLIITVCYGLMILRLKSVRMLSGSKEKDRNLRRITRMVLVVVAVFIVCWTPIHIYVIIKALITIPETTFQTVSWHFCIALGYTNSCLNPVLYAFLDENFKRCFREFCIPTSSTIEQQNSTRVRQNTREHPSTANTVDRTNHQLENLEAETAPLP

## c1c[nH]cn1 [imidazole]
  effect on binding of 3H-DAMGO to the mu opioid receptor: negligible inhibition; also recorded: No significant effect
